Measured values reported in publication PMC7284870, “Antimicrobial Peptides from Rat-Tailed Maggots of the Drone Fly Eristalis tenax Show Potent Activity against Multidrug-Resistant Gram-Negative Bacteria” (Microorganisms, 2020).
Converted amounts (≈) assume the structure as drawn. Where two headings read alike, the source gives them in different places. No end group written: not given here.

How the values were obtained:
[1] = molecular target: human ERG (hERG) potassium channel (Homo sapiens, UniProt Q12809); assay: cell-based
Chain of human ERG (hERG) potassium channel (Q12809 whole entry): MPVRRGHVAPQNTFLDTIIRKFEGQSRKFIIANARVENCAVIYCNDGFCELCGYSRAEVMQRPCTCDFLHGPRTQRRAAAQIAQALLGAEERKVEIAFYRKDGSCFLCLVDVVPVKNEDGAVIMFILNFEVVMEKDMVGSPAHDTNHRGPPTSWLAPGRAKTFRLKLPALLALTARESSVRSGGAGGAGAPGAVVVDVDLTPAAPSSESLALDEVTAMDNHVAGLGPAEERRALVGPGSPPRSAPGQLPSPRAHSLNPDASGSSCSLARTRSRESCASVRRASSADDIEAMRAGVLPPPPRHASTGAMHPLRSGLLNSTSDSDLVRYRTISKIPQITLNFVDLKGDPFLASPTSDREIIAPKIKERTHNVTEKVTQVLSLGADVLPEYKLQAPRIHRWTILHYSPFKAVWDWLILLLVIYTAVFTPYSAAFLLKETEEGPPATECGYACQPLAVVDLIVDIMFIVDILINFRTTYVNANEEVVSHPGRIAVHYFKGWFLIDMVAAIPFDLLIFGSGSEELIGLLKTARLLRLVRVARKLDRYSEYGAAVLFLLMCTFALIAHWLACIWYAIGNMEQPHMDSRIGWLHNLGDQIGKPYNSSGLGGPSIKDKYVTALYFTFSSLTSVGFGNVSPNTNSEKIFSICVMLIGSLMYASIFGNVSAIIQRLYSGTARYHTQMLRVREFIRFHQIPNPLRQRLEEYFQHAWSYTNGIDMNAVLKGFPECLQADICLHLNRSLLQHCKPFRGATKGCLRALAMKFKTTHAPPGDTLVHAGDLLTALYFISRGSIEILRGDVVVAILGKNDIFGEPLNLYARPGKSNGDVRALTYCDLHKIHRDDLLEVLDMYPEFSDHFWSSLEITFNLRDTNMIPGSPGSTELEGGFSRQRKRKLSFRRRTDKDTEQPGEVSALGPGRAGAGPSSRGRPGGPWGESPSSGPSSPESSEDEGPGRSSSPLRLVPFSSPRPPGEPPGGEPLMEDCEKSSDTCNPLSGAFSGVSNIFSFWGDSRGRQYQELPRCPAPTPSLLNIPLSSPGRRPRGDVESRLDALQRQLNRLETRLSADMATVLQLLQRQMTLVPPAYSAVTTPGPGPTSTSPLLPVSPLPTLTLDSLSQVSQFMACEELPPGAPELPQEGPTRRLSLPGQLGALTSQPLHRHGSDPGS
Protocol: The interaction of the peptides with the human ERG (hERG) potassium channel was analyzed using the automated patch-clamp method. Chinese hamster ovary (CHO) hERG Duo cells constitutively expressing hERG (B’SYS) were diluted to 8 × 10^6 cells/mL in Ex-Cell CHO medium (Sigma–Aldrich) containing 25 mM HEPES, 100 U/mL penicillin-streptomycin, and 0.004% soybean trypsin inhibitor. The peptides were diluted from a stock concentration of 10 mM in DMSO to final concentrations of 0.12, 0.37, 1.1, 3.3, 10, and 30 μM (0.5–124 µg/mL for […], 0.51–128 µg/mL for EtCec2-a, 0.49–122 µg/mL for EtCec3-a, 0.8–200 µg/mL for EtDip) in extracellular medium (150 mM NaCl, 4 mM KCl, 2 mM CaCl2, 1 mM MgCl2, 10 mM HEPES, 10 mM glucose) containing 0.06% Pluronic F-68 and 0.3% residual DMSO. The response of hERG to each peptide was assessed while using a QPatch HTX station and QPlates (Sophion/Biolin Scientific, Ballerup, Denmark) by recording the tail current following channel repolarization. Half-maximal inhibitory concentrations (IC50) were determined from a series of six concentrations applied to the cells in ascending order. Terfenadine citrate was used as a positive control and extracellular medium as a negative control.

HepG2 cells = assay: Cytotoxicity (ATP quantification and neutral red uptake)
Protocol: The cytotoxicity of the AMPs was determined in 96-well microtiter plates with an assay volume of 200 µL. The peptides were dissolved in PBS and a 1:2 dilution series in DMEM-F12 medium (supplemented with 1% nonessential amino acids, 1% sodium pyruvate, and 5% heat-inactivated fetal calf serum) was prepared in nine steps to produce test concentrations of 400, 200, 100, […], 12.5, 6.25, 3.13, and 1.56 μM (1655–6.46 µg/mL for EtCec1-a, 1713–6.68 µg/mL for EtCec2-a, 1622–6.33 µg/mL for EtCec3-a, 2661–10.38 µg/mL for EtDip). Stocks of the mycoplasma-free HepG2 cell line HB-8065 (ATCC) stored in liquid nitrogen were seeded at a density of 20,000 cells/well into 96-well microplates in 100 μL DMEM-F12 supplemented as above. After incubation overnight at 37 ± 1 °C in a 5% CO2 atmosphere, 100 μL of the test solution was added per well in six replicates. Ketoconazole was used as a positive control and PBS as a negative control. The plates were incubated for 24 h, as above, and the cell viability was assessed using the luminescent CellTiter-Glo ATP monitoring kit (Promega) to determine the quantity of ATP.
HepG2 cells and peptides were prepared as described above, and cell viability was assessed based on the ability of lysosomes to store the dye neutral red (Sigma–Aldrich, ST. Louis, MO, USA). The cells were incubated for 3 h with a neutral red solution, washed twice, and lysed. After complete lysis, the quantity of neutral red was determined by measuring the absorption at 540 nm while using a Tecan Genios Pro plate reader.

K. pneumoniae RKI 93/10 = assay: microbe, parasite or virus in culture; assay type: cell-based, Klebsiella pneumoniae
Protocol: The strains that were used in this study (Table 2 and Table S1) were cultivated at 37 °C in cation-adjusted Mueller–Hinton broth (CAMB) in Erlenmeyer flasks, or on the same medium with agar in Petri dishes. Exceptionally, Mycobacterium smegmatis was cultivated at 37 °C in brain heart infusion (BHI) medium that was supplemented with 1% Tween-80 in Erlenmeyer flasks, or on the same medium lacking detergent but with agar in Petri dishes. Strains listed with Robert Koch Institute (RKI) strain numbers are clinical isolates from the RKI strain collection originating from hospitalized patients in Germany. The remaining strains originated from the Sanofi strain collection and they were originally purchased from the American Type Culture Collection or the German Collection of Microorganisms and Cell Cultures. Meropenem/colistin-resistant strains were maintained, as described above, with the appropriate antibiotic added at levels below the minimal inhibitory concentration (MIC).
The MIC values were determined in 384-well microtiter plates with an assay volume of 20 µL. Immediately before each assay, the cultures of test organisms (bacteria grown for 18 h, Candida albicans and M. smegmatis grown for 48 h) were diluted with the appropriate medium to a density of 1 × 10^6 cells/mL (C. albicans), 1 × 10^5 cells/mL (M. smegmatis) or 5 × 10^5 cells per mL (other species). […] We transferred 2-µL aliquots from this dilution series to new 384-well microtiter plates while using a CyBio-Well 384-channel automated pipettor (Analytic Jena, Jena, Germany) and added 18 µL of the diluted suspension of each test species using a Viafill reagent dispenser (Integra), thus reducing the final peptide concentration 10-fold to the range 1024–0.03125 µg/mL. […] The growth of M. smegmatis was measured using the BacTiter-Glo luminescence test system (Promega, Madison, WI, USA). The growth of the other species was determined by visual inspection of the microtiter plate and turbidimetry based on the optical density at 600 nm (OD600). The MIC was defined as the peptide concentration at which no bacterial growth was observed. We supplemented the test medium with either 150 mM NaCl or 1.25 mM CaCl2 to represent monovalent and divalent cations to simulate physiological conditions.

S. aureus ATCC 33592 = assay type: cell-based, Staphylococcus aureus
In short: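 Broth microdilution in cation-adjusted Mueller–Hinton broth at 37 °C, with 18 h cultures diluted to 5 × 10^5 cells/mL and final peptide concentrations of 1024–0.03125 µg/mL. Growth was scored visually and by OD600. MIC is the lowest concentration with no growth; medium was optionally supplemented with 150 mM NaCl or 1.25 mM CaCl2.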

[2] = HepG2, 24 h, cell viability >80%
[3] = CAMB + 0.075 µg/mL colistin (Col), n=3

| Compound | NOEC (HepG2 cells; [2]) [µg/mL] | MIC (K. pneumoniae RKI 93/10; [3]) [µg/mL] | MIC (S. aureus ATCC 33592; CAMB, 18 h, 37 °C, n = 4) [µg/mL] | IC50 [1] [µM] | also measured |
| --- | --- | --- | --- | --- | --- |
| QFNMQGGGSPRQGFDVNANARFPIWQSQNARNSVHGTASYAQHLGGPYGNSRPNFGGGLQFT [EtDip, diptericin-like peptide of Eristalis tenax] | > 1330 | >1024 | >1024 |  | IC50 hERG ([1]; CHO hERG Duo cells, QPatch, tail current, six concentrations): > 200 µg/mL; MIC (K. pneumoniae RKI 93/10; Table 5, CAMB, n=3): >1024 µg/mL |
| C[C@@H](O)[C@H]1C(=O)N2C(C(=O)O)=C(S[C@@H]3CN[C@H](C(=O)N(C)C)C3)[C@H](C)[C@H]12 [MEM, meropenem] |  |  |  |  | MIC (K. pneumoniae RKI 93/10; Klebsiella pneumoniae, RKI93/10): 64 µg/mL (≈ 167 µM) |
| GFLKKIGKKLEGAVQRTRDATIQTIAVAQAAANVAATAKQ-NH2 [EtCec1-NH2] |  |  |  | > 30 | NOEC (HepG2 cells): greater than 1655 µg/mL; MIC (K. pneumoniae RKI 93/10; RKI 93/10, 18 h): 8 µg/mL; MIC (S. aureus ATCC 33592; ATCC 33592, 18 h): >1024 µg/mL |
| GWLRDFGKRIERTGQNIRDATIQTIGIAQEAANVAATLK-NH2 [EtCec2-NH2] | 535 | 8 | >1024 | > 29.9 | MIC (K. pneumoniae RKI 93/10; CAMB adjusted to 150 mM NaCl, n=3): 256 µg/mL; MIC (K. pneumoniae RKI 93/10; Table 4, CAMB, n=3): 64 µg/mL |
